From US20260372305A1, “A METHOD FOR CONTROLLING WEEDS” (SYNGENTA CROP PROTECTION AG, priority 2022, published 2026)
Where “and” joins values, the source holds several entries; their conditions need not be identical. Equal values may be shown once.

Key:
[1] = system: Amaranthus tuberculatus, homozygous for the deletion of glycine at amino acid 210 in PPX2L (G210 deletion); assay: Postemergence control of Amaranthus tuberculatus with G210 deletion in PPX2L (Example 2); type: in vivo
[2] = system: Amaranthus tuberculatus with a mutation at amino acid 210; assay: Field trial: control of Amaranthus tuberculatus visually assessed as % weed control (Example 3); type: in vivo
Protocol: A field trial was carried out in a plot in Canada. The plot size per replicate was set to 10 m^2. Compound 1 and the standard product saflufenacil were applied to about 4 inch (about 10 cm) tall Amaranthus tuberculatus with a mutation at amino acid 210, using a water volume of 300 I/ha. The efficacy of the tested compounds was visually assessed 14 days after the application and expressed in % weed control, whereas ratings range from 100% being complete control and 0% representing weed populations/growth similar to what is observed in the untreated check. Only species present at a sufficient density and consistency were assessed for reliable ratings.

SMILES: CCOC(=O)[C@]1(C)CC(c2cc(-n3c(=O)n(C)c(=S)n(C)c3=O)c(F)cc2Cl)=NO1 [compound 1, ethyl (5S)-3-[2-chloro-5-(3,5-dimethyl-2,6-dioxo-4-thioxo-1,3,5-triazinan-1-yl)-4-fluoro-phenyl]-5-methyl-4H-isoxazole-5-carboxylate]
- % Survival out of 14 repetitions ([1]; […], 0.5 g ai/ha^−1, postemergence, 14 days after application, Agridex 1% by volume): 100%
- % Survival out of 14 repetitions ([1]; […], 1 g ai/ha^−1, postemergence, 14 days after application, Agridex 1% by volume): 100%
- % Survival out of 14 repetitions ([1]; […], 2 g ai/ha^−1, postemergence, 14 days after application, Agridex 1% by volume): 100%
- % Survival out of 14 repetitions ([1]; […], 4 g ai/ha^−1, postemergence, 14 days after application, Agridex 1% by volume): 100%
- % Survival out of 14 repetitions ([1]; […], 8 g ai/ha^−1, postemergence, 14 days after application, Agridex 1% by volume): 86%
- % Survival out of 14 repetitions ([1]; […], 16 g ai/ha^−1, postemergence, 14 days after application, Agridex 1% by volume): 50%
- % Survival out of 14 repetitions ([1]; […], 32 g ai/ha^−1, postemergence, 14 days after application, Agridex 1% by volume): 0%
- % Survival out of 14 repetitions ([1]; […], 64 g ai/ha^−1, postemergence, 14 days after application, Agridex 1% by volume): 0%
- plant survival ([1]; at or beyond 32 g ai/ha): no plants survived
- control of PPO inhibitor herbicide resistant Amaranthus tuberculatus with a mutation at amino acid 210 compared with fomesafen ([1]; in vivo): superior control
- control of Amaranthus tuberculatus with a mutation at codon 210 compared to saflufenacil [2]: equivalent, if not slightly improved control

SMILES: CS(=O)(=O)NC(=O)c1cc(Oc2ccc(C(F)(F)F)cc2Cl)ccc1[N+](=O)[O-] [fomesafen, reference compound]
- % Survival out of 14 repetitions ([1]; in vivo): 100% and 93%
- plant survival ([1]; in vivo): significant plant survival
